Measurements from US20200108115A1, “MEDICINAL COMPOSITION DERIVED FROM MULTIPLE PLANT SOURCES FOR GASTROINTESTINAL DISORDER” (priority 2017, published 2020).
≈ marks a conversion by molar mass, not a printed value.

What was measured:
Test in all cases: MIC by resazurin micro-titre method
Type in all cases: cell-based
[1] = test system: Faecalibacterium prausnitzii (BB5); conditions: beneficial, 37° C., 18-24 h
[2] = test system: Streptococcus thermophilus (BB2); conditions: beneficial, 37° C., 18-24 h
[3] = test system: Salmonella typhimurium (P3); conditions: Salmonella enterica, 37° C., 18-24 h
[4] = test system: Shigella dysenteriae (P7); conditions: read-out: MIC value
Vibrio cholera (P5) = conditions: Vibrio cholerae, read-out: MIC value
[5] = test system: Bacteroides fragilis (BB3); conditions: beneficial, 37° C., 18-24 h
Klebsiella oxytoca (P4) = conditions: 37° C., 18-24 h
Helicobacter pylori (P6) = conditions: read-out: MIC value

Structure (SMILES): O=C(O)c1cn(C2CC2)c2cc(N3CCNCC3)c(F)cc2c1=O [Ciprofloxacin, ciprofloxacin]
- MIC [1]: 31.2 µg/mL (≈ 94.3 µM)
- MIC [2]: 31.2 µg/mL (≈ 94.3 µM)
- MIC [3]: 1000 µg/mL (≈ 3020 µM)
- MIC [4]: 15.1 µg/mL (≈ 45.6 µM)
- MIC (Vibrio cholera (P5)): 125 µg/mL (≈ 377 µM)
- MIC [5]: 62.5 µg/mL (≈ 189 µM)
- MIC (Klebsiella oxytoca (P4)): 500 µg/mL (≈ 1510 µM)
- MIC (Helicobacter pylori (P6)): 15.1 µg/mL (≈ 45.6 µM)
